According to the NIST ThermoML archive (doi:10.1021/acs.jced.6b00542):

Test: xn = mol fraction of the nth substance listed
Conditions: for speed of sound: 100 kPa, Frequency=3 MHz, Sing-around technique in a fixed-path interferometer; for speed of sound / viscosity / mass density: Liquid; for viscosity / mass density: 102 kPa; for viscosity: Concentric cylinders viscometry; for mass density: Vibrating tube method; for surface tension liquid-gas: 294.5 K, Pendant drop shape

CCCCc1ccccc1 [butylbenzene] + CCCCCCCCCC
Conditions | mass density [kg/m3] | speed of sound [m/s] | viscosity [mPa·s]
293.15 K, x1 = 0.1055 | 740.9 | 1259.2 | 0.917
293.15 K, x1 = 0.2096 | 752.3 | 1266.3 | 0.917
293.15 K, x1 = 0.3124 | 764.12 | 1273.8 | 0.921
293.15 K, x1 = 0.4141 | 776.38 | 1282.1 | 0.928
293.15 K, x1 = 0.5145 | 789.08 | 1291.3 | 0.94
293.15 K, x1 = 0.614 | 802.32 | 1301.1 | 0.957
293.15 K, x1 = 0.712 | 816.03 | 1312.2 | 0.981
293.15 K, x1 = 0.8094 | 830.38 | 1324.5 | 1
293.15 K, x1 = 0.9051 | 845.04 | 1338.2 | 1.03
293.15 K, x1 = 1 | 860.51 | 1353.7 | 1.05
303.15 K, x1 = 0.1055 | 733.32 | 1220.2 | 0.792
303.15 K, x1 = 0.2096 | 744.67 | 1227.4 | 0.794
303.15 K, x1 = 0.3124 | 756.43 | 1235 | 0.798
303.15 K, x1 = 0.4141 | 768.66 | 1243.5 | 0.805
303.15 K, x1 = 0.5145 | 781.31 | 1252.5 | 0.816
303.15 K, x1 = 0.614 | 794.51 | 1262.6 | 0.83
303.15 K, x1 = 0.712 | 808.16 | 1273.7 | 0.849
303.15 K, x1 = 0.8094 | 822.46 | 1286 | 0.866
303.15 K, x1 = 0.9051 | 837.07 | 1299.4 | 0.891
303.15 K, x1 = 1 | 852.49 | 1314.9 | 0.91
313.15 K, x1 = 0.1055 | 725.64 | 1181.5 | 0.693
313.15 K, x1 = 0.2096 | 736.97 | 1188.9 | 0.696
313.15 K, x1 = 0.3124 | 748.7 | 1196.6 | 0.7
313.15 K, x1 = 0.4141 | 760.89 | 1205.2 | 0.707
313.15 K, x1 = 0.5145 | 773.5 | 1214.3 | 0.716
313.15 K, x1 = 0.614 | 786.65 | 1224.4 | 0.727
313.15 K, x1 = 0.712 | 800.26 | 1235.6 | 0.743
313.15 K, x1 = 0.8094 | 814.51 | 1247.9 | 0.76
313.15 K, x1 = 0.9051 | 829.07 | 1261.2 | 0.781
313.15 K, x1 = 1 | 844.43 | 1276.6 | 0.801
323.15 K, x1 = 0.1055 | 717.94 | 1143.3 | 0.616
323.15 K, x1 = 0.2096 | 729.23 | 1150.8 | 0.619
323.15 K, x1 = 0.3124 | 740.92 | 1158.7 | 0.624
323.15 K, x1 = 0.4141 | 753.07 | 1167.3 | 0.63
323.15 K, x1 = 0.5145 | 765.64 | 1176.6 | 0.639
323.15 K, x1 = 0.614 | 778.75 | 1186.7 | 0.649
323.15 K, x1 = 0.712 | 792.31 | 1197.9 | 0.661
323.15 K, x1 = 0.8094 | 806.52 | 1210.2 | 0.677
323.15 K, x1 = 0.9051 | 821.03 | 1223.5 | 0.695
323.15 K, x1 = 1 | 836.34 | 1238.7 | 0.713
333.15 K, x1 = 0.1055 | 710.17 | 1105.6 | 0.547
333.15 K, x1 = 0.2096 | 721.43 | 1113.2 | 0.549
333.15 K, x1 = 0.3124 | 733.08 | 1121.2 | 0.555
333.15 K, x1 = 0.4141 | 745.19 | 1129.9 | 0.56
333.15 K, x1 = 0.5145 | 757.73 | 1139.3 | 0.568
333.15 K, x1 = 0.614 | 770.8 | 1149.5 | 0.577
333.15 K, x1 = 0.712 | 784.32 | 1160.7 | 0.589
333.15 K, x1 = 0.8094 | 798.48 | 1173 | 0.602
333.15 K, x1 = 0.9051 | 812.95 | 1186.3 | 0.618
333.15 K, x1 = 1 | 828.21 | 1201.4 | 0.636
343.15 K, x1 = 0.1055 | 702.3 | – | 0.488
343.15 K, x1 = 0.2096 | 713.5 | – | 0.492
343.15 K, x1 = 0.3124 | 725.1 | – | 0.496
343.15 K, x1 = 0.4141 | 737.2 | – | 0.502
343.15 K, x1 = 0.5145 | 749.7 | – | 0.509
343.15 K, x1 = 0.614 | 762.7 | – | 0.518
343.15 K, x1 = 0.712 | 776.1 | – | 0.528
343.15 K, x1 = 0.8094 | 790.3 | – | 0.54
343.15 K, x1 = 0.9051 | 804.7 | – | 0.554
343.15 K, x1 = 1 | 819.9 | – | 0.571
353.15 K, x1 = 0.1055 | 694.4 | – | 0.439
353.15 K, x1 = 0.2096 | 705.6 | – | 0.443
353.15 K, x1 = 0.3124 | 717.1 | – | 0.447
353.15 K, x1 = 0.4141 | 729.2 | – | 0.453
353.15 K, x1 = 0.5145 | 741.7 | – | 0.46
353.15 K, x1 = 0.614 | 754.6 | – | 0.467
353.15 K, x1 = 0.712 | 768 | – | 0.477
353.15 K, x1 = 0.8094 | 782.1 | – | 0.488
353.15 K, x1 = 0.9051 | 796.5 | – | 0.5
353.15 K, x1 = 1 | 811.7 | – | 0.516
363.15 K, x1 = 0.1055 | 686.4 | – | 0.399
363.15 K, x1 = 0.2096 | 697.5 | – | 0.402
363.15 K, x1 = 0.3124 | 709.1 | – | 0.407
363.15 K, x1 = 0.4141 | 721.1 | – | 0.412
363.15 K, x1 = 0.5145 | 733.5 | – | 0.419
363.15 K, x1 = 0.614 | 746.4 | – | 0.426
363.15 K, x1 = 0.712 | 759.9 | – | 0.434
363.15 K, x1 = 0.8094 | 773.9 | – | 0.444
363.15 K, x1 = 0.9051 | 788.3 | – | 0.456
363.15 K, x1 = 1 | 803.4 | – | 0.469
373.15 K, x1 = 0.1055 | 678.2 | – | 0.365
373.15 K, x1 = 0.2096 | 689.3 | – | 0.369
373.15 K, x1 = 0.3124 | 700.9 | – | 0.373
373.15 K, x1 = 0.4141 | 712.8 | – | 0.378
373.15 K, x1 = 0.5145 | 725.3 | – | 0.384
373.15 K, x1 = 0.614 | 738.2 | – | 0.391
373.15 K, x1 = 0.712 | 751.6 | – | 0.399
373.15 K, x1 = 0.8094 | 765.6 | – | 0.408
373.15 K, x1 = 0.9051 | 779.9 | – | 0.419
373.15 K, x1 = 1 | 795 | – | 0.43

Conditions | surface tension liquid-gas [mN/m]
x1 = 0.1055 | 23.9
x1 = 0.2096 | 24.3
x1 = 0.3124 | 24.6
x1 = 0.4141 | 24.9
x1 = 0.5145 | 25.4
x1 = 0.614 | 25.8
x1 = 0.712 | 26.5
x1 = 0.8094 | 26.7
x1 = 0.9051 | 27.9
